Data on 1 compound can be found in patent US20220370556A1, “Method of Treatment” (Volution Immuno Pharmaceuticals SA, priority 2019, published 2022).

Test [1] has as its target T1, nomacopan (EV576, OmCI protein, Coversin), Ornithodoros moubata, mature form, amino acids 19 to 168 of SEQ ID NO: 2 (SEQ ID NO: 4) (Ornithodoros moubata, UniProt Q5YD59).
T1 sequence (Q5YD59 19-168): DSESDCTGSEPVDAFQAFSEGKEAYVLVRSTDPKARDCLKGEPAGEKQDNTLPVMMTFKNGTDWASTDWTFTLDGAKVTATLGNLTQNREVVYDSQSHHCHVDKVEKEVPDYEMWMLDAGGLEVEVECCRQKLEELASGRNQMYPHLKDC
The test is described as follows: Fluorescence titration of LTB4 binding to nomacopan. As to conditions: 100 nM nomacopan in PBS, 20° C., excitation 280 nm, emission 340 nm. The text has this:
The ability of a nomacopan-type protein to bind LTB4 may be determined by standard in vitro assays known in the art, for example by means of a competitive ELISA between nomacopan and anti-LTB4 antibody competing for binding to labelled LTB4, by isothermal titration calorimetry or by fluorescence titration. […] For example, binding activity for LTB4 (Caymen Chemicals, Ann Arbor, Mich., USA) in phosphate buffered saline (PBS) can be quantified in a spectrofluorimeter e.g. a LS 50 B spectrofluorimeter (Perkin-Elmer, Norwalk, Conn., USA). This may be carried out by may be carried out as follows:
Purified 100 nM solutions of nomacopan, in 2 mL PBS were applied in a quartz cuvette (10 mm path length; Hellma, Mühlheim, Germany) equipped with a magnetic stirrer.
Temperature was adjusted to 20° C. and, after equilibrium was reached, protein Tyr/Trp fluorescence was excited at 280 nm (slit width: 15 nm). The fluorescence emission was measured at 340 nm (slit width: 16 nm) corresponding to the emission maximum. A ligand solution of 30 μM LTB4 in PBS was added step-wise, up to a maximal volume of 20 μL (1% of the whole sample volume), and after 30 s incubation steady state fluorescence was measured. […]

The target in test [2] is Human BLT1 G-protein coupled receptor. As to conditions: high affinity receptor, ref. [12]; cited from earlier work.
Test [3] addresses Human BLT2 G-protein coupled receptor. As to conditions: ref. [13]; cited from earlier work.

As a reminder, the Kd is the constant that tells how readily two partners part at equilibrium.

`CCCCC/C=C\C[C@@H](O)/C=C/C=C/C=C\[C@@H](O)CCCC(=O)O` [LTB4, Leukotriene B4]: the Kd is 0.1 to 0.3 nM in test [1], 0.39 to 1.5 nM in test [2] and 23 nM in test [3].
